Results taken from article PMC9977294, “A parasitic fungus employs mutated eIF4A to survive on rocaglate-synthesizing Aglaia plants” (eLife, 2023).
“And” between values parts separate entries of the source, which are not always exact repeats. Equal values may be shown once. “Also recorded” adds a separate entry of the source.

What was measured:
[1] = system: C. orbiculare eIF4A^WT conidia and mycelia; assay: Ribosome profiling and RNA-Seq, translation efficiency change; type: cell-based, Colletotrichum orbiculare; settings: 0.3 or 3 µM aglafoline, 6 h
Protocol: (§1) Glycerol stocks of C. orbiculare eIF4A^WT#1 and eIF4A^H153G#1 strains were streaked on PDA in 90 mm plastic Petri dishes and incubated for 3 days. A single colony of each strain was transferred onto PDA and incubated for 3 days. The outer edges of colonies were transferred to 90 mm plastic dishes filled with 20 ml of PDB using plastic straws and incubated for 4 days. Aglafoline (0.3 or 3 µM) or DMSO was added to dishes and incubated for 6 h.
(§2) A single colony from the glycerol stocks was cultured by the same method used for mycelium preparation. The outer edges of colonies of each strain were transferred into six 300 ml flasks filled with 100 ml of PDA. Two milliliters of sterilized water was added to each flask, and the flasks were shaken well to ensure that the mycelial cells adhered to the entire surface of the PDA evenly. After 6 days of incubation in the dark, conidia generated on the surface of PDA were suspended in 20 ml of sterilized water. […]
(§3) Sequence data were processed as previously described ([McGlincy and Ingolia, 2017]) with modifications. For ribosome profiling, using the Fastp v0.21.0 ([Chen et al., 2018]) tool, sequences of reads 1 were corrected by reads 2, and quality filtering and adapter sequence removal were performed on reads 1. The adapter-removed reads 1 were split by the barcode sequence. […]

[2] = system: C. orbiculare eIF4A^His153Gly conidia and mycelia; assay: as above; type: cell-based, Colletotrichum orbiculare; settings: 3 µM aglafoline, 6 h, compared with eIF4A^WT
Protocol: as §1, §2, §3

[3] = system: Ophiocordyceps sp. BRM1 eIF4A Gly172His; assay: In vitro translation in RRL with complex-preformed mRNAs; type: biochemical; settings: reporter mRNA with polypurine motifs preincubated with eIF4A and 9.1 µM RocA, free RocA removed; Figure 3B
Protocol: (§4) The DNA fragments PCR-amplified from psiCHECK2−7×AGAGAG motifs or psiCHECK2-CAA repeats ([Iwasaki et al., 2016]) were used as a template for in vitro transcription with a T7-Scribe Standard RNA IVT Kit ([…]). RNA was capped and poly(A) tailed with a ScriptCap m^7G Capping System, a ScriptCap 2′-O-Methyltransferase Kit, and an A-Plus Poly(A) Polymerase Tailing Kit ([…]).
(§5) Then, 4 µl of complex-preformed mRNA was incubated with 50% RRL (Promega) in a 10 µl reaction volume for 1 hr at 30°C, according to the manufacturer’s instructions. The fluorescence signal was detected using the Renilla-Glo Luciferase Assay System (Promega) and measured with the GloMax Navigator System (Promega). In the control experiments, instead of recombinant eIF4A proteins, storage buffer was used. Moreover, recombinant eIF4A proteins were added to the G-25 flowthrough solution in place of the storage buffer.

[4] = system: Ophiocordyceps sp. BRM1 eIF4A WT; assay: as above; type: biochemical; settings: reporter mRNA with polypurine motifs preincubated with eIF4A and 9.1 µM RocA, free RocA removed; Figure 3B
Protocol: as §4, §5

H. sapiens eIF4A1 WT = biological target: T1, H. sapiens eIF4A1 WT (Homo sapiens, UniProt P60842); assay: In vitro translation assay in reconstituted system with human factors; type: biochemical; settings: for translation of reporter mRNA, Mean / translation of reporter mRNA, replicates: CAA repeats reporter, value at 0 μM RocA = 1
T1 construct: His tag (N); made in house; host or cells: E. coli BL21 Star (DE3)
From the text: as §4
(§6) The reconstitution system for human translation has been described previously ([Iwasaki et al., 2019]; [Machida et al., 2018]; [Yokoyama et al., 2019]). The in vitro translation reaction and luciferase assay were performed as previously described ([Iwasaki et al., 2019]) with some modifications. The final concentrations of mRNA and the eIF4A protein were 60 ng/µl and 2.16 µM, respectively. The translation mixture was incubated for 2.5 hr. The fluorescence signal was detected using the Renilla-Glo Luciferase Assay System (Promega) and measured in an EnVision 2104 plate reader (PerkinElmer).

[5] = biological target: T2, H. sapiens eIF4A1 Phe163Gly (Homo sapiens, UniProt P60842, F163G); assay: as above; type: biochemical; settings: for translation of reporter mRNA, Mean / translation of reporter mRNA, replicates: CAA repeats reporter, value at 0 μM RocA = 1
T2 construct: His tag (N); made in house; host or cells: E. coli BL21 Star (DE3)
From the text: as §4, §6

T1 sequence (P60842 whole entry): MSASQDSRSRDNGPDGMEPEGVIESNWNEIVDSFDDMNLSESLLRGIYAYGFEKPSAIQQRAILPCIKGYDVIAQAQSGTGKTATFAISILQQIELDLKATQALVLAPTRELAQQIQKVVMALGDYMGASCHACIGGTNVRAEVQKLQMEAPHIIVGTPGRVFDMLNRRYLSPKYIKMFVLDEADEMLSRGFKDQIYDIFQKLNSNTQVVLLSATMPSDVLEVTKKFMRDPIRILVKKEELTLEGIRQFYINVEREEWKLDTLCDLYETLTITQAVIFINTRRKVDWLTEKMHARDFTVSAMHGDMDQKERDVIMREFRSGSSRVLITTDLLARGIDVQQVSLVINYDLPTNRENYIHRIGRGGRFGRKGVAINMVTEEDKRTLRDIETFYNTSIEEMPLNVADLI
T2 sequence (P60842 whole entry F163G): as the sequence (P60842 whole entry) above, with F163G counted along it

COC(=O)[C@H]1[C@@H](O)[C@@]2(O)c3c(OC)cc(OC)cc3O[C@@]2(c2ccc(OC)cc2)[C@@H]1c1ccccc1 [Aglafoline, methyl rocaglate]
translation efficiency change [1]: a subset of mRNAs showed high aglafoline sensitivity in terms of translation efficiency in conidia; also recorded: the reduction was compound dose dependent
translation efficiency change [2]: attenuated by the His153Gly substitution

COc1ccc([C@@]23Oc4cc(OC)cc(OC)c4[C@]2(O)[C@H](O)[C@H](C(=O)N(C)C)[C@H]3c2ccccc2)cc1 [RocA, rocaglamide A]
translation of complex-preformed mRNA in RRL [3]: could act as a translation repressor
translation of complex-preformed mRNA in RRL [4]: could not alter translation
translation of reporter mRNA, Mean (H. sapiens eIF4A1 WT; RocA 0.1 μM): 1.2394
translation of reporter mRNA, replicates (H. sapiens eIF4A1 WT; RocA 0.1 μM): 0.9075 and 1.715 and 1.095
translation of reporter mRNA, Mean (H. sapiens eIF4A1 WT; RocA 1 μM): 1.148
translation of reporter mRNA, replicates (H. sapiens eIF4A1 WT; RocA 1 μM): 0.7715 and 1.702 and 0.9709
translation of reporter mRNA, Mean (H. sapiens eIF4A1 WT; RocA 10 μM): 1.012
translation of reporter mRNA, replicates (H. sapiens eIF4A1 WT; RocA 10 μM): 0.7743 and 1.31 and 0.9501
translation of reporter mRNA (H. sapiens eIF4A1 WT; polypurine motif-possessing reporter mRNA, Figure 3A): translation reduction from polypurine motif-possessing reporter mRNA
translation of reporter mRNA, Mean ([5]; RocA 0.1 μM): 1.06
translation of reporter mRNA, replicates ([5]; RocA 0.1 μM): 0.8871 and 1.301 and 0.9923
translation of reporter mRNA, Mean ([5]; RocA 1 μM): 1.42
translation of reporter mRNA, replicates ([5]; RocA 1 μM): 0.8083 and 2.551 and 0.9008
translation of reporter mRNA, Mean ([5]; RocA 10 μM): 0.918
translation of reporter mRNA, replicates ([5]; RocA 10 μM): 0.6256 and 1.131 and 0.9971
translation of reporter mRNA ([5]; polypurine motif reporter mRNA, Figure 3A): prevented the translation repression mediated by RocA
